Legend:
[1] = Metabolites in human liver microsomes (systems I-human, II-human); assay type: in vitro ADME
Experimental: Then, NADPH-B (10 μl) was added and the mixed solution incubated for 2 h. […] Next, UDPGA (50 μl) was added and the mixed solution incubated for 2 h. In addition, the naringenin solution (1 mM, 10 μl) was evaluated in human systems I and II as above.
(§1) The incubated solution (500 μl) of systems I-rat, II-rat, III-rat, I-human, and II-human were extracted with ethyl acetate (500 μl) for at least 3 min by vortexing and centrifuged for 10 min at 13,000 rpm and 4°C. The extraction process described above was performed twice and all supernatants were transferred into centrifuge tubes, dried with N2, and dissolved with methanol-water (1:1, v/v). All samples were injected into a UPLC/Q-TOF-MS system consisting of a Waters Acquity ultra performance liquid chromatography (UPLC) coupled with a Micromass micro™ quadrupole time-of-flight mass spectrometry (Q-TOF-MS) system (Waters Corp., Milford, MA, USA), equipped with an electrospray ionization source, and controlled by the MassLynx (v. 4.1) software. Separation was performed on a Waters Acquity UPLC BEH C18 column (50 mm × 2.1 mm, 1.7 μm) at 40°C. The mobile phase consisted of 0.1% formic acid (v/v) in water (A) and methanol (B) using a linear gradient of 95% to 60% A (0–25 min), 60% to 40% A (25–35 min), 40% to 10% A (35–40 min), 10% A (40–43 min), 10% to 95% A (43–44 min), and 95% A (44–45 min). The injection volume was 5 μl with flow rate of 0.2 ml min^-1. The Q-TOF-MS worked in a full scan mode (100–1,200 m/z), selection ion mode, and product ion mode, in negative ion mode, respectively. The conditions were as follows: capillary voltage 3,000 V, sample cone voltage 30 V, extraction cone voltage 2.0 V, source temperature 100°C, desolvation temperature 350°C, cone gas (N2) flow rate of 40 L/h, desolvation gas (N2) flow rate of 700 L/h, low collision energy 6.0 eV, and high collision energy 20–80 eV. Compounds were detected with accurate mass using leucine enkephalin for mass correction at 554.2615 (m/z) in negative ionization mode.

[2] = Metabolites in rat liver microsomes (systems I-rat, II-rat); assay type: in vitro ADME, Sprague-Dawley rat
Experimental: Then, NADPH-B (10 μl) was added and incubated for 2 h. […] Then, UDPGA (50 μl) was added and incubated for 2 h. […] Then, UDPGA (50 μl) was added and incubated for 2 h. In addition, the naringenin solution (1 mM, 10 μl) was evaluated in rat systems I, II, and III as above.
as §1

SMILES: O=c1cc(-c2ccc(O)cc2)oc2cc(O)cc(O)c12 [M6, Apigenin]
- found in human liver microsomes, incubation of naringenin (S) [1]: +
- found in rat liver microsomes, incubation of naringenin (S) [2]: +

SMILES: O=C1C[C@@H](c2ccc(O)c(O)c2)Oc2cc(O)cc(O)c21 [M7, Eriodictyol]
- found in human liver microsomes, incubation of naringenin (S) [1]: +
- found in rat liver microsomes, incubation of naringenin (S) [2]: +

SMILES: COc1ccc([C@@H]2CC(=O)c3c(O)cc(O)cc3O2)cc1O [M8, Hesperetin]
- found in rat liver microsomes, incubation of naringenin (S) [2]: +
